US20080293679A1, “Use of carotenoids and/or carotenoid derivatives/analogs for reduction/inhibition of certain negative effects of COX inhibitors” (priority 2005, published 2008)
Marks after values point to notes of the source that are not given here.

What was measured:
[1] = system: superoxide anion generation from phorbol-ester (PMA)-stimulated PMNs; experiment: Direct superoxide anion scavenging by EPR spectroscopy (DEPMPO spin trap), isolated human neutrophil assay; assay type: cell-based
Description: Leukocyte Isolation and Preparation. Human polymorphonuclear leukocytes (PMNs) were isolated from freshly sampled venous blood of a single volunteer by Percoll density gradient centrifugation as described previously. Briefly, each 10 mL of whole blood was mixed with 0.8 mL of 0.1 M EDTA and 25 mL of saline. The diluted blood was then layered over 9 mL of Percoll at a specific density of 1.080 g/mL. After centrifugation at 400×g for 20 min at 20° C., the plasma, mononuclear cell, and Percoll layers were removed. Erythrocytes were subsequently lysed by addition of 18 mL of ice-cold water for 30 s, followed by 2 mL of 10×PIPES buffer (25 mM PIPES, 110 mM NaCl, and 5 mM KCl, titrated to pH 7.4 with NaOH). Cells were then pelleted at 4° C., the supernatant was decanted, and the procedure was repeated. After the second hypotonic cell lysis, cells were washed twice with PAG buffer [PIPES buffer containing 0.003% human serum albumin (HSA) and 0.1% glucose]. Afterward, PMNs were counted by light microscopy on a hemocytometer. The isolation yielded PMNs with a purity of >95%. The final pellet was then suspended in PAG-CM buffer (PAG buffer with 1 mM CaCl2 and 1 mM MgCl2).
EPR Measurements. All EPR measurements were performed using a Bruker ER 300 EPR spectrometer operating at X-band with a TM110 cavity as previously described. The microwave frequency was measured with a Model 575 microwave counter (EIP Microwave, Inc., San Jose, Calif.). To measure superoxide anion ? generation from phorbol-ester (PMA)-stimulated PMNs, EPR spin-trapping studies were performed using the spin trap DEPMPO (Oxis, Portland, Oreg.) at 10 mM. 1×10^6 PMNs were stimulated with PMA (1 ng/mL) and loaded into capillary tubes for EPR measurements. To determine the radical scavenging ability of 3 and 9 in aqueous and ethanolic formulations, PMNs were pre-incubated for 5 minutes with test compound, followed by PMA stimulation.
Instrument settings used in the spin-trapping experiments were as follows: modulation amplitude, 0.32 G; time constant, 0.16 s; scan time, 60 s; modulation frequency, 100 kHz; microwave power, 20 milliwatts; and microwave frequency, 9.76 GHz. The samples were placed in a quartz EPR flat cell, and spectra were recorded. The component signals in the spectra were identified and quantified as reported previously.

[2] = Lipid peroxide levels in DLPC multilamellar vesicles, C/P 0.2 (triiodide assay); assay type: biochemical; settings: for Lipid Peroxide Levels: mean ± S.D.
Description: The levels of lipid peroxide formation were measured photometrically at specific time points. […] Samples were prepared in a glass test tube as described in the table above. […] Sample tubes were vortexed for 3 min to form MLVs. This assay is based on the principle of the oxidative capacity of lipid peroxides to convert […], which can be measured photometrically at […] (El-Saadani et al., 1989). […] Samples were placed in a water bath set at 37° C. Samples remained in the water bath throughout the experiment except for the temporary removal for time point extractions. • 2. […] • 3. After combining sample time point aliquots with CHOD active reagent and the diffraction buffer as described in the table above, test samples were incubated about 6 hours in darkness at ambient temperature. • 4. The absorbance ([…] nm) of the samples was measured using a spectrophotometer. • 5. […] This value was determined by adding known concentrations of I2 to the CHOD reagent. A stoichiometric relationship (slope=1.02) was observed between the amount of organic peroxides assayed and the concentration of I3^- produced.

[3] = Peroxidation study in DLPC multilamellar vesicles, C/P 0.6; assay type: biochemical; settings: C/P 0.6, carotenoid 10 μM, 48 hour
Description: 1. Samples were prepared in a glass test tube as described in the table above. This gives a cholesterol/DLPC mole ratio of 0.6 and a final concentration of 10 μM for the carotenoids. Equal volumes of vehicle (20 μl chloroform) were added to control samples. 2. All samples were dried down under a steady stream of nitrogen gas while vortexing. 3. Samples were placed in a vacuum desiccator for 2 hours to remove residual solvent and protected from light. 4. Multi-lamellar vesicles (MLVs) were prepared by the method developed by Bangham and Standish (1965). After samples were removed from the vacuum desiccator, they were immediately resuspended in 1 ml of diffraction buffer warmed to room temperature and vortexed for 3 minutes to form MLVs.
This assay is based on the principle of the oxidative capacity of lipid peroxides to convert I2 to I3^− (triiodide), which can be measured photometrically at 365 nm (el-Saadani et al., 1989). This assay is sensitive to peroxide concentrations as low as 10 μM.
1. Samples were placed in a water bath set at 37° C. throughout the experiment. 2. Aliquots of a sample (20 μl) were extracted at a 48 hour time point as described in the table below.
3. After combining the samples with CHOD active reagent and the diffraction buffer, test samples were incubated for about 6 hours in darkness at ambient temperature. 4. The absorbance of a sample was measured photometrically at 365 nm.
Concentrations of lipid peroxides were calculated by the use of the molar absorptivity of I3^− measured at 365 nm (ε=2.46±0.25×10^4M^−1 cm^−1). This value was determined by adding known concentrations of […] to the CHOD reagent. A stoichiometric relationship (slope=1.02) was observed between the amount of organic peroxides assayed and the concentration of I3^− produced.

[4] = F2-isoprostane formation from DAPC lipid vesicles by GC/NCI-MS; assay type: biochemical
Description: F2-Isoprostanes are derived principally from the formation of positioned peroxyl radical isomers of arachidonic acid, endocyclization to protaglandin G2-like structures, and reduction to PGF2-like compounds. Total levels of F2-isoprostanes, in DAPC lipid vesicles prepared in the presence of vehicle or drug, were measured by GC-MS with negative chemical ionization as described by Walter et al., 2000. Peroxidation of lipids occurred over time in the absence of any exogenous initiators at 37° C. F2-Isoprostane formation was also measured independently using mass spectroscopy in a blinded study at the Antioxidant Research Laboratory, Tufts University, Boston, Mass.

[5] = Oxygen Radical Absorption Capacity (ORAC) of human plasma; assay type: biochemical; settings: 10.0 μM (highest concentration tested); vehicle 28.1±1.2
Description: The comparative effect of COX-2 selective agents on the antioxidant capacity of human plasma was assessed using the Oxygen Radical Absorption Capacity (ORAC) assay. This assay was carried out according to the method of Huang et al., 2002 with fresh plasma using a microplate fluorescence reader in 96 well format with the excitation and emission filters set at 485 and 530 nm respectively.

[6] = cited from earlier work
[7] = system: human LDL; experiment: MDA formation (TBARS) in isolated human LDL; assay type: biochemical; settings: for MDA level in LDL samples: 1 μM, vehicle 3.23±0.28 μM
Description: The effects of the compounds on lipid peroxidation were tested in isolated human LDL. Human venous blood was collected into vacutainer tubes containing K3EDTA after a 12-hour fast. Plasma was immediately separated by centrifugation at 3000 g for 25 minutes. LDL was obtained from plasma by ultracentrifugation using a procedure similar to that reported by Chung et al, 1986 using discontinuous KBr gradient. The purity of the freshly isolated LDL was assessed by SDS-PAGE using the procedure of Laemmli, 1970.
The extent of oxidation was measured for the LDL in the absence and presence of the drugs over a range of concentrations. Malondialdehyde (MDA), a product of lipid oxidation, was measured by the reaction of this aldehyde with thiobarbituric acid in an acid medium to form a stable chromogen, referred to as thiobarbituric-acid-reactive-substances (TBARS). Purified LDL (100 μg protein/ml) was incubated for 30 minutes with either vehicle or an NSAID at various concentrations followed by addition of 50 μM CuSO4 at 37° C. Conjugated diene formation was measured by continuously monitoring the change in absorbance at 234 nm on a Beckman DU 640 spectrophotometer, as described by Esterbauer et al., 1985. Stock solutions were tested for iron contamination, which can contribute independently to lipid peroxidation and assay artifacts.

[8] = 24 Hour, carotenoid 1 μM, control 218 ± 20
[9] = 24 Hour, carotenoid 10 μM, control 218 ± 20
[10] = 48 Hour, carotenoid 1 μM, control 572 ± 76
[11] = 48 Hour, carotenoid 10 μM, control 572 ± 76

Row | Compound | % increase (+) or decrease (−) of lipid peroxide levels compared to control ([2]; 24 Hour, carotenoid 1 μM) | Lipid Peroxide Levels [2, 8] [µM] | % increase (+) or decrease (−) of lipid peroxide levels compared to control ([2]; 24 Hour, carotenoid 10 μM) | Lipid Peroxide Levels [2, 9] [µM] | % increase (+) or decrease (−) of lipid peroxide levels compared to control ([2]; 48 Hour, carotenoid 1 μM) | Lipid Peroxide Levels [2, 10] [µM] | % increase (+) or decrease (−) of lipid peroxide levels compared to control ([2]; 48 Hour, carotenoid 10 μM) | Lipid Peroxide Levels [2, 11] [µM] | further results
1 | 3,3′-Diphosphoryloxy-β,ε-carotene sodium salt [Lutein Diphosphate Sodium Salt] |  |  |  |  |  |  |  |  | Mean (% inhibition) of superoxide anion signal ([1]; 40% EtOH, 0.1 mM): 18%; Mean (% inhibition) of superoxide anion signal ([1]; Water, 0.1 mM, listed as disodium diphosphate derivative of natural source lutein, sodium salt): 0%; Mean (% inhibition) of superoxide anion signal ([1]; Water, 0.1 mM, sodium salt): no inhibition; Mean (% inhibition) of superoxide anion signal ([1]; Water, 1.0 mM): 9.3%; Mean (% inhibition) of superoxide anion signal ([1]; Water, 3.0 mM): 72.3%; Mean (% inhibition) of superoxide anion signal ([1]; Water, 5.0 mM, listed as disodium diphosphate derivative of natural source lutein, sodium salt): more than 90%; Mean (% inhibition) of superoxide anion signal ([1]; Water, 5.0 mM, sodium salt): 91.0%
2 | CC1=CC(O)CC(C)(C)C1/C=C/C(C)=C/C=C/C(C)=C/C=C/C=C(C)/C=C/C=C(C)/C=C/C1=C(C)CC(O)CC1(C)C (stereo not drawn) [Lutein, β,ε-carotene-3,3′-diol] | +15.6%^a | 252 ± 11 | +0.9%^a | 220 ± 8 | +13.5%^a | 649 ± 73 | +17.7%^a | 673 ± 69 | 
3 | CC(C)=CCC/C(C)=C/C=C/C(C)=C/C=C/C(C)=C/C=C/C=C(C)/C=C/C=C(C)/C=C/C=C(\C)CCC=C(C)C [Lycopene] | +9.6%^a | 239 ± 2 | +85.8%^a | 405 ± 32 | +13.1%^a | 647 ± 61 | +119.1%^a | 1253 ± 55 | antioxidant/prooxidant activity [3]: highest prooxidant activity
4 | CC1=C(/C=C/C(C)=C/C=C/C(C)=C/C=C/C=C(C)/C=C/C=C(C)/C=C/C2=C(C)C[C@@H](O)CC2(C)C)C(C)(C)C[C@H](O)C1 [Zeaxanthin] | +10.6%^a | 241 ± 12 | −0.5%^a | 217 ± 7 | +5.8%^a | 605 ± 26 | +20.6%^a | 690 ± 24 | 
5 | Cc1ccc(-c2cc(C(F)(F)F)nn2-c2ccc(S(N)(=O)=O)cc2)cc1 [celecoxib] |  |  |  |  |  |  |  |  | effect on peroxidation of arachidonic acid-enriched vesicles ([4]; even at higher concentrations (data not shown)): no significant effect; ORAC value (AUC) [5]: 28.5±0.1; maximum plasma concentration (Cmax) ([6]; approved 200 mg dose): 705 ng/mL; volume of distribution ([6]; in vivo): 400 L; Cmax ([6]; read-out: maximum plasma concentration (Cmax), approved 200 mg dose): 1850 nM
6 | CS(C)(=O)=O [dimethyl sulfone] |  |  |  |  |  |  |  |  | MDA level in LDL samples [7]: 3.32 ± 0.19 µM
7 | Cc1ccc(-c2ncc(Cl)cc2-c2ccc(S(C)(=O)=O)cc2)cn1 [etoricoxib] |  |  |  |  |  |  |  |  | Levels of isoprostanes ([4]; 100 nM, vehicle 140±25 ng/100 μl, mean ± S.D.): 224±22 ng/100 μl; effect on MDA levels (TBARS) in human LDL [7]: marked increases
8 | CS(=O)(=O)c1ccccc1 [methyl phenyl sulfone] |  |  |  |  |  |  |  |  | MDA level in LDL samples [7]: 3.25 ± 0.13 µM
9 | CC1=C(/C=C/C(C)=C/C=C/C(C)=C/C=C/C=C(C)/C=C/C=C(C)/C=C/C2=C(C)CCCC2(C)C)C(C)(C)CCC1 [β-Carotene] | +24.8%^a | 272 ± 10 | +69.3%^a | 369 ± 17 | +40.4%^a | 803 ± 99 | +86.7%^a | 1068 ± 82 | antioxidant/prooxidant activity [3]: prooxidant activity
